Assay results published in patent US20150072026A1, “Anti-inflammatory ion and uses thereof” (Yunyuan Li, priority 2013, published 2015).

Key:
subcutaneous masses = assay: Topical NH4Cl in skin moisture lotion to treat subcutaneous masses; format: in vivo, human; conditions: 10 mM in skin moisture lotion, once a day, after 2-3 days
psoriasis = assay: Spray of 10 mM NH4Cl solution on psoriasis sites of patient A; format: in vivo, human; conditions: 10 mM NH4Cl spray once every 2 days
Excerpt: Photos were taken before and after treatments in indicated time points. FIGS. 1, 2, 3, 4 and 5 illustrated the results of the above-identified protocol used in this study.

acnes or furuncles = assay: Topical NH4Cl lotion on face to prevent acnes or furuncles; format: in vivo, human; conditions: NH4+ 10 mM in skin moisture lotion, topical on face once a week
furuncles = assay: Topical NH4Cl in skin moisture lotion to treat furuncles; format: in vivo, human; conditions: 10 mM in skin moisture lotion, 3 times a day, after 2-3 days
pain of body = assay: Topical NH4Cl in skin moisture lotion to reduce pain of body; format: in vivo, human; conditions: 10 mM in skin moisture lotion, once a day, after 2-3 days
[1] = test system: dermatological inflammatory diseases and other inflammatory diseases or syndrome; conditions: 10 mM, topical or gargle or spray administration

Compound	subcutaneous masses (subcutaneous masses)	psoriasis on one hand (psoriasis; 2 months, patient A (FIG. 3))	psoriasis on both elbows (psoriasis; 3 months, patient A (FIG. 2))	psoriasis on the back of the body (psoriasis; 3 months, patient A (FIG. 4))	psoriasis on both hands (psoriasis; 3 months, patient A with psoriasis for 3 years (FIG. 1))	appearance of psoriasis on feet and both knees (psoriasis; 4 months, patient A (FIG. 5))	prevention of acnes or furuncles (acnes or furuncles)	furuncles (pain, red, nodule) (furuncles)	pain of body (pain of body)	effects for dermatological inflammatory diseases (eczema, acnes, psoriasis, furuncles) and other inflammatory diseases or syndrome [1]
Cl.N [NH4Cl, ammonium chloride]	masses less than 1 cm would be disappeared	cures psoriasis	cures psoriasis	cure psoriasis	cures psoriasis	improve appearance of psoriasis	could prevent acnes or furuncles	furuncles were cured	completed stopped or significantly reduced	excellent effects
CC(=O)O.N [ammonium acetate]										excellent effects
N.N.O=S(=O)(O)O [ammonium sulfate]										excellent effects
